The text below walks through data of ChEMBL document CHEMBL1828555, “Primary amino acid derivatives: substitution of the 4'-N'-benzylamide site in (R)-N'-benzyl 2-amino-3-methylbutanamide, (R)-N'-benzyl 2-amino-3,3-dimethylbutanamide, and (R)-N'-benzyl 2-amino-3-methoxypropionamide provides potent anticonvulsants with pain-attenuating properties” (J Med Chem, 2011).

The source made the active and inactive calls. No cut-off for these calls is given here.

Data set [1] is described as follows: Neurotoxicity in ip dosed albino CF1 mouse assessed as median neurological impairing dose after 30 mins. The data set is classed as toxicity, organism-based. Conditions: in vivo.
A short description of data set [2]: Toxicity in po dosed albino Sprague-Dawley rat assessed as behavioural toxicity. The conditions noted are these: in vivo. The data set is classed as organism-based.
Data set [3] has as its system Mus musculus. Put plainly: Anticonvulsant activity in ip dosed albino CF1 mouse assessed as time of peak effect for protection against maximal electroshock-induced seizure. It is filed as functional.
Data set [4] deals with Mus musculus. Put plainly: Neurotoxicity in ip dosed albino CF1 mouse assessed as time of peak effect for median neurological impairing. The data set is classed as toxicity, organism-based. The conditions noted are these: in vivo.
For data set [5], the system named is Rattus norvegicus. The data set can be described thus: Anticonvulsant activity in po dosed albino Sprague-Dawley rat assessed as time of peak effect for protection against maximal electroshock seizure. The data set is classed as functional.
The test system of data set [6] is Mus musculus. Put plainly: Anticonvulsant activity in ip dosed albino CF1 mouse assessed as protection against maximal electroshock-induced seizure after 30 mins. The data set is classed as functional. The conditions noted are these: 0.5 h.
Data set [7] has as its system Mus musculus. Put plainly: Anticonvulsant activity in ip dosed albino CF1 mouse assessed as protection against subcutaneous pentylenetetrazol-induced seizure. The data set is classed as functional, organism-based.
Data set [8] deals with Rattus norvegicus. The data set can be described thus: Anticonvulsant activity in po dosed albino Sprague-Dawley rat assessed as protection against maximal electroshock seizure. The data set is classed as functional.
For data set [9], the system named is Rattus norvegicus. Put plainly: Toxicity in po dosed albino Sprague-Dawley rat assessed as time of peak effect for behavioural toxicity. The conditions noted are these: in vivo. It is filed as organism-based.
In data set [10] the test system is Mus musculus. The data set can be described thus: Anticonvulsant activity in ip dosed albino CF1 mouse assessed as protection against 6 Hz psychomotor seizure after 30 mins. It is filed as functional. Conditions: 0.5 h.

Take `O=C1NC(=O)C(c2ccccc2)(c2ccccc2)N1` [PHENYTOIN]: in [1], the TD50 at 0.5 h stood at 27 mg/kg. Further, in data set [2], the TD50 was greater than 3000 mg/kg. Besides, the Time came to 2 h in the data set with Mus musculus [3], 0.25 h with Mus musculus [4] and 4 h in the data set with Rattus norvegicus [5].

Regarding `CC(C)[C@H](N)C(=O)NCc1ccc(COc2cccc(F)c2)cc1`, the TD50 at 0.5 h in [1] was determined as 100 mg/kg. For the same compound, the figures for the 50% effective dose (ED50) in the data set with Mus musculus [6] and in the data set with Rattus norvegicus [8] were 30 mg/kg and greater than 30 mg/kg, respectively. For the same compound, the TD50 in data set [2] is greater than 30 mg/kg. Moreover, the outcome with Mus musculus [7] was inactive. The Time in the data set with Rattus norvegicus [5] and in the data set on Rattus norvegicus [9] was 0.25 h throughout.

As for `CC(C)(C)[C@@H](N)C(=O)NCc1ccc(OCc2cccc(F)c2)cc1`, in data set [1], the TD50 at 0.5 h worked out at 300 mg/kg. In addition, the 50% effective dose (ED50) is 30 mg/kg with Mus musculus [6] and greater than 30 mg/kg with Rattus norvegicus [8]. For the same compound, the TD50 in [2] was greater than 30 mg/kg. The Time worked out at 0.5 h in the data set with Mus musculus [3], 0.5 h in the data set with Mus musculus [4], 0.25 h in the data set with Rattus norvegicus [5] and 0.25 h with Rattus norvegicus [9]. Further, the outcome in the data set with Mus musculus [7] was inactive.

Regarding `CC(C)(C)[C@@H](N)C(=O)NCc1ccc(-c2ccccc2)cc1`, in data set [1], the TD50 at 0.5 h was determined as 30 mg/kg. Moreover, the ED50 with Mus musculus [6] was determined as 30 mg/kg. Besides, the Time with Mus musculus [3] and in the data set on Mus musculus [4] was 0.5 h in each case. Moreover, in the data set with Mus musculus [7], the outcome was inactive.

Consider `CCCC(CCC)C(=O)[O-].[Na+]` [VALPROATE SODIUM], for which the ED50 in the data set with Mus musculus [6] was 270 mg/kg. In addition, the Time in the data set on Mus musculus [3] was determined as 0.5 h; in the data set on Mus musculus [4], 0.25 h; in the data set on Rattus norvegicus [5], 0.5 h; in the data set on Rattus norvegicus [9] it was 0.5 h.

Consider `CC(C)[C@H](N)C(=O)NCc1ccccc1`, for which, in [1], the TD50 at 0.5 h was greater than 300 mg/kg. Besides, the ED50 in the data set with Mus musculus [6] was greater than 300 mg/kg. The result in the data set on Mus musculus [7] was inactive.

For the compound `CC(C)[C@@H](N)C(=O)NCc1ccc(-c2ccccc2)cc1`, the TD50 at 0.5 h in [1] is greater than 300 mg/kg. For the same compound, the ED50 with Mus musculus [6] and in the data set on Rattus norvegicus [8] was 30 mg/kg throughout. For the same compound, the TD50 in data set [2] was greater than 30 mg/kg. The Time in the data set with Mus musculus [3] was 0.5 h; with Mus musculus [4], 0.5 h; in the data set on Rattus norvegicus [5], 2 h; in the data set on Rattus norvegicus [9], 0.25 h. The outcome with Mus musculus [7] was inactive.

As for `C[C@H](N)C(=O)NCc1ccccc1`, in data set [1], the TD50 at 0.5 h was greater than 300 mg/kg. Moreover, the ED50 in the data set on Mus musculus [6] is greater than 300 mg/kg.

On to `COc1ccc(CNC(=O)[C@H](N)C(C)C)cc1`, for which, in data set [1], the TD50 at 0.5 h amounted to 30 mg/kg. Moreover, the figures for the 50% effective dose (ED50) with Mus musculus [6] and in the data set on Rattus norvegicus [8] were greater than 300 mg/kg and greater than 30 mg/kg, respectively. Moreover, the TD50 in data set [2] is greater than 30 mg/kg. Besides, the Time in the data set on Mus musculus [3] stood at 0.5 h; in the data set on Mus musculus [4] it was 0.5 h; in the data set with Rattus norvegicus [5] it was 0.25 h; in the data set with Rattus norvegicus [9], 0.25 h. Further, the outcome in the data set with Mus musculus [7] was inactive.

For `Cc1ccc(CNC(=O)[C@H](N)C(C)C)cc1`, the TD50 at 0.5 h in [1] is greater than 300 mg/kg. In addition, the ED50 in the data set on Mus musculus [6] is greater than 300 mg/kg; in the data set on Rattus norvegicus [8] it was 50 mg/kg. Further, in data set [2], the TD50 is greater than 50 mg/kg. Also, the Time was 0.5 h in the data set on Mus musculus [3], 0.5 h in the data set on Mus musculus [4], 1 h in the data set with Rattus norvegicus [5] and 0.25 h in the data set with Rattus norvegicus [9]. Besides, in the data set on Mus musculus [7], the result was inactive.

`CC(C)(C)[C@@H](N)C(=O)NCc1ccc(COc2cccc(F)c2)cc1`: the TD50 at 0.5 h in data set [1] came to 100 mg/kg. The results for the ED50 with Mus musculus [6], in the data set with Mus musculus [10] and with Rattus norvegicus [8] were 30 mg/kg, greater than 75 mg/kg and 30 mg/kg, respectively. The TD50 in [2] is greater than 30 mg/kg. For the same compound, the Time was 0.5 h with Mus musculus [3], 0.5 h in the data set with Mus musculus [4], 2 h in the data set on Rattus norvegicus [5] and 0.25 h in the data set with Rattus norvegicus [9]. Also, in the data set with Mus musculus [7], the result was inactive.

For `COC[C@H](N)C(=O)NCc1ccc(COc2cccc(F)c2)cc1`, the TD50 at 0.5 h in data set [1] came to 100 mg/kg. The ED50 in the data set on Mus musculus [6] came out at 30 mg/kg. Also, the result in the data set with Mus musculus [7] was inactive.
